SMILES strings stand for the structures. Converted amounts (≈) assume the structure as drawn. Where two headings read alike, the source gives them in different places. A value given as a limit tells only on which side of the number the result lay.

Data set [1] concerns HBV. In words: HBV DNA Quantification Assay. It is filed as cell-based. The procedure: A HepG2 cell line overexpressing the HBV virus attachment receptor sodium-taurocholate cotransporting polypeptide (NTCP) was grown to confluency in DMEM growth medium, Dulbecco's Modified Eagle Medium without sodium pyruvate (Life Technologies, Rockville, Md.) supplemented with 10% FBS (Thermo Scientific, Waltham, Md.), 1% penicillin/streptomycin (Life Technologies, Rockville, Md.) and 2 mM L-glutamine (Life Technologies, Rockville, Md.) in T175 flasks. Cells were infected with HBV AD38 viral particles (Texcell, Frederick, USA) at 4000 genome equivalents per cell. After allowing viral infection to take place for 4 days, the infected cells were harvested from the flasks by trypsinization, washed twice with OptiMEM (Life Technologies, Rockville, Md.) and re-suspended in DMEM containing 2% FBS and 1% DMSO at a density of 0.25E6 cells/ml. Infected cells were seeded on 384 well collagen coated plates (Greiner, Austria) at a density of 20,000 cells/well containing serially diluted compounds of the present disclosure or DMSO (0.5%) in a final volume of 80 μl. The assay plates were incubated for a period of 5 days and the antiviral activity of the test compounds were assayed by detecting the presence of HBV DNA in the culture supernatant using the QuantiGene™ 2.0 nucleic acid quantification kit (Affymetrix, Santa Clara, Calif.).
The culture supernatant was harvested and treated with lysis buffer containing Proteinase K (Affymetrix, Santa Clara, Calif.). The supernatant was incubated with HBV viral DNA specific probes (Affymetrix, Santa Clara, Calif.) for 30 minutes at 55° C. This was followed by addition of 0.2M NaOH for 30 minutes at room temperature to denature the DNA, followed by addition of Neutralization buffer (Affymetrix, Santa Clara, Calif.). The resulting lysed and neutralized supernatant was then added to QuantiGene™ 2.0 384 well plates coated with capture oligonucleotides and incubated overnight at 55° C. The HBV specific probe set consists of Capture Extender oligonucleotides (CE's) and blocking probes. Following the overnight incubation, the wells were incubated for one hour sequentially with a Pre-Amplifier, Amplifier and Labeled probes conjugated to alkaline phosphatase with a wash step between incubations. After the final wash step, the alkaline phosphatase substrate (Luminol APS5) was added and the resulting luminescence signal was read in an EnVision Multilabel Plate Reader (PerkinElmer, Santa Clara, Calif.). The EC50 values were calculated from the fit of the dose-response curves to a four-parameter equation. All EC50 values represent geometric mean values of a minimum of four determinations.

Data set [2] in a line: Kinetic Solubility. It is filed as physicochemical. The settings on record: 0.2 to 100 μM, BD Gentest Solubility Scanner. On the procedure: The 10 mM DMSO stock solution of the test compound is serially diluted into a 96-well “DMSO stock dilution plate”. Then Pipette 2 μL from the DMSO stock dilution plate into the “Sample plate” and dilute with 198 µL of the assay media to generate the final concentrations of the test compound ranging from 0.2 to 100 μM. The “Sample plate” is run on a BD Gentest Solubility Scanner.

Where [3] appears, read: Hepatitis B virus, 120 h, HepG2 cell line overexpressing NTCP infected with HBV AD38 viral particles, HBV DNA in culture supernatant after 5 days, geometric mean of a minimum of four determinations, read-out: EC50.
The mark [4] stands for this setting: aqueous buffer, kinetic from dmso stock, pH = 7, read-out: Kinetic Solubility at pH = 7.
[5] abbreviates: simulated gastric fluid, kinetic from dmso stock, pH = 1, read-out: Kinetic Solubility at pH = 1.

For `Cc1c(C(=O)Nc2ccc(F)c(C(F)F)c2)c2n(c1C(=O)C(=O)NC1(c3nncs3)CC(F)(F)C1)CCC2` [Example 49, 5-(2-((3,3-difluoro-1-(1,3,4-thiadiazol-2-yl)cyclobutyl)amino)-2-oxoacetyl)-N-(3-(difluoromethyl)-4-fluorophenyl)-6-methyl-2,3-dihydro-1H-pyrrolizine-7-carboxamide], the EC50 in data set [1] (setting [3]) is 0.0032 µM.
In the case of `Cc1c(C(=O)Nc2ccc(F)c(F)c2)c2n(c1C(=O)C(=O)NC1(c3cnn[nH]3)CC(F)(F)C1)C[C@@H]1C[C@H]21` [Example 21], in data set [1] (setting [3]), the EC50 is 0.0039 µM. Besides, the solubility (kinetic) in data set [2] (setting [4]) was 57.6 µM (≈ 29.7 µg/mL); in data set [2] (setting [5]), 64.7 µM (≈ 33.4 µg/mL).
For `CNC(=O)C1(NC(=O)C(=O)c2c(C)c(C(=O)Nc3ccc(F)c(F)c3)c3n2CCC3)COC1` [Example 38, N-(3,4-difluorophenyl)-6-methyl-5-(2-((3-(methylcarbamoyl)oxetan-3-yl)amino)-2-oxoacetyl)-2,3-dihydro-1H-pyrrolizine-7-carboxamide], in that order: 0.0872 µM, 86.7 µM (≈ 39.9 µg/mL) and 88.7 µM (≈ 40.8 µg/mL).
In the case of `CNC(=O)C1(NC(=O)C(=O)c2c(C)c(C(=O)Nc3ccc(F)c(C(F)F)c3)c3n2CCC3)CC(F)(F)C1` [Example 41], in data set [1] (setting [3]), the EC50 amounted to 0.0208 µM. Further, the kinetic solubility in data set [2] (setting [4]) and in data set [2] (setting [5]) was greater than 100 µM throughout.
`Cc1c(C(=O)Nc2ccc(F)c(F)c2)c2n(c1C(=O)C(=O)NC1(c3cnn[nH]3)CC(F)(F)C1)[C@H]1C[C@H]1C2` [Example 23, (1aS,6aS)-3-(2-((3,3-difluoro-1-(1H-1,2,3-triazol-5-yl)cyclobutyl)amino)-2-oxoacetyl)-N-(3,4-difluorophenyl)-4-methyl-1,1a,6,6a-tetrahydrocyclopropa[a]pyrrolizine-5-carboxamide]: in data set [1] (setting [3]), the EC50 came out at 0.0318 µM. The solubility (kinetic) is 49.4 µM (≈ 25.5 µg/mL) in data set [2] (setting [4]) and 62 µM (≈ 32 µg/mL) in data set [2] (setting [5]).
Turning to `O=C(NC1(c2c[nH]nn2)CC(F)(F)C1)C(=O)c1c(Cl)c(C(=O)Nc2ccc(F)c(F)c2)c2n1CCC2` [Example 54, 6-chloro-5-(2-((3,3-difluoro-1-(1H-1,2,3-triazol-4-yl)cyclobutyl)amino)-2-oxoacetyl)-N-(3,4-difluorophenyl)-2,3-dihydro-1H-pyrrolizine-7-carboxamide], in data set [1] (setting [3]), the EC50 stood at 0.0016 µM.
Take `O=C(NC1(c2c[nH]nn2)CC(F)(F)C1)C(=O)c1c(Cl)c(C(=O)Nc2ccc(F)c(C(F)F)c2)c2n1CCC2` [Example 55, 6-chloro-5-(2-((3,3-difluoro-1-(1H-1,2,3-triazol-4-yl)cyclobutyl)amino)-2-oxoacetyl)-N-(3-(difluoromethyl)-4-fluorophenyl)-2,3-dihydro-1H-pyrrolizine-7-carboxamide]: the EC50 in data set [1] (setting [3]) stood at 0.003 µM.
For `Cc1c(C(=O)Nc2ccc(F)cc2)c2n(c1C(=O)C(=O)NC1(c3nncs3)CC1)CCC2` [Example 30, 5-(2-((1-(1,3,4-thiadiazol-2-yl)cyclopropyl)amino)-2-oxoacetyl)-N-(4-fluorophenyl)-6-methyl-2,3-dihydro-1H-pyrrolizine-7-carboxamide], in data set [1] (setting [3]), the EC50 is 0.0306 µM. For the same compound, the values for the solubility (kinetic) in data set [2] (setting [4]) and in data set [2] (setting [5]) were 13 µM (≈ 5.9 µg/mL) and greater than 100 µM, respectively.
As to `Cc1c(C(=O)Nc2ccc(F)cc2)c2n(c1C(=O)C(=O)NC1(c3cnn(C)n3)CC(F)(F)C1)CCC2` [Example 9, 5-(2-((3,3-difluoro-14(2-methyl-2H-1,2,3-triazol-4-yl)cyclobutyl)amino)-2-oxoacetyl)-N-4(4-fluorophenyl)-6-methyl-2,3-dihydro-1H-pyrrolizine-7-carboxamide], the EC50 in data set [1] (HepG2 cell line overexpressing NTCP infected with HBV AD38 viral particles, HBV DNA in culture supernatant after 5 days, geometric mean of a minimum of four determinations, read-out: EC50) was determined as 0.0058 µM. Moreover, the solubility (kinetic) in data set [2] (pH = 1, read-out: Kinetic Solubility at pH = 1) worked out at 2.8 µM (≈ 1.4 µg/mL); in data set [2] (pH = 7, read-out: Kinetic Solubility at pH = 7) it was 2.3 µM (≈ 1.15 µg/mL).
On to `Cc1c(C(=O)Nc2ccc(F)cc2)c2n(c1C(=O)C(=O)NC1(c3nncs3)CC(F)(F)C1)CCC2` [Example 8], for which the EC50 in data set [1] (setting [3]) came to 0.0047 µM. Further, the values for the kinetic solubility in data set [2] (setting [4]) and in data set [2] (setting [5]) were 3.9 µM (≈ 1.96 µg/mL) and 10.5 µM (≈ 5.29 µg/mL), respectively.
In the case of `O=C(NC1(c2nncs2)CC1)C(=O)c1c(Cl)c(C(=O)Nc2ccc(F)c(F)c2)c2n1CCC2` [Example 52, 5-(2-((1-(1,3,4-thiadiazol-2-yl)cyclopropyl)amino)-2-oxoacetyl)-6-chloro-N-(3,4-difluorophenyl)-2,3-dihydro-1H-pyrrolizine-7-carboxamide], the EC50 in data set [1] (setting [3]) was determined as 0.011 µM.
Consider `Cc1c(C(=O)Nc2ccc(F)c(C#N)c2)c2n(c1C(=O)C(=O)NC1(c3nncs3)CC(F)(F)C1)CCC2` [Example 2], for which the EC50 in data set [1] (setting [3]) was 0.0048 µM. The solubility (kinetic) in data set [2] (setting [4]) was 7.4 µM (≈ 3.91 µg/mL); in data set [2] (setting [5]), 7.8 µM (≈ 4.12 µg/mL).
Consider `O=C(NC1(c2c[nH]nn2)CC1)C(=O)c1c(Cl)c(C(=O)Nc2ccc(F)c(F)c2)c2n1CCC2` [Example 53, 5-(2-((1-(1H-1,2,3-triazol-4-yl)cyclopropyl)amino)-2-oxoacetyl)-6-chloro-N-(3,4-difluorophenyl)-2,3-dihydro-1H-pyrrolizine-7-carboxamide], for which the EC50 in data set [1] (setting [3]) was 0.0069 µM.
With `CNC(=O)C1(NC(=O)C(=O)c2c(C)c(C(=O)Nc3ccc(F)c(Cl)c3)c3n2CCC3)CC(F)(F)C1` [Example 35], the EC50 in data set [1] (setting [3]) was determined as 0.0142 µM. In addition, the solubility (kinetic) was 3.4 µM (≈ 1.74 µg/mL) in data set [2] (setting [4]) and 9.1 µM (≈ 4.65 µg/mL) in data set [2] (setting [5]).
On to `Cc1c(C(=O)Nc2cc(F)c(F)c(F)c2)c2n(c1C(=O)C(=O)NC1(c3cn(C)nn3)CC(F)(F)C1)CCC2` [Example 4], for which the EC50 in data set [1] (setting [3]) came out at 0.0075 µM. The solubility (kinetic) in data set [2] (setting [4]) is 39.9 µM (≈ 21.4 µg/mL); in data set [2] (setting [5]), 43.3 µM (≈ 23.2 µg/mL).
With `COCc1cc(NC(=O)c2c(C)c(C(=O)C(=O)NC3(c4nncs4)CC(F)(F)C3)n3c2CCC3)ccc1F` [Example 50], in data set [1] (setting [3]), the EC50 was found to be 0.0334 µM.
As to `COCc1cc(NC(=O)c2c(C)c(C(=O)C(=O)NC3(c4c[nH]nn4)CC(F)(F)C3)n3c2CCC3)ccc1F` [Example 51], the EC50 in data set [1] (setting [3]) came out at 0.045 µM.
Regarding `CNC(=O)C1(NC(=O)C(=O)c2c(C)c(C(=O)Nc3ccc(F)c(F)c3)c3n2CCC3)CC(F)(F)C1` [Example 46], in data set [1] (setting [3]), the EC50 was determined as 0.0225 µM. Moreover, the kinetic solubility in data set [2] (setting [4]) is 88.5 µM (≈ 43.8 µg/mL); in data set [2] (setting [5]), 84.4 µM (≈ 41.7 µg/mL).
With `Cc1c(C(=O)Nc2ccc(F)c(F)c2)c2n(c1C(=O)C(=O)N[C@](C)(C(N)=O)C(F)(F)F)CCC2` [Example 47, (R)-5-(2-((3-amino-1,1,1-trifluoro-2-methyl-3-oxopropan-2-yl)amino)-2-oxoacetyl)-N-(3,4-difluorophenyl)-6-methyl-2,3-dihydro-1H-pyrrolizine-7-carboxamide], in data set [1] (setting [3]), the EC50 stood at 0.0541 µM.
In the case of `Cc1c(C(=O)Nc2ccc(F)c(F)c2)c2n(c1C(=O)C(=O)N[C@@](C)(C(N)=O)C(F)(F)F)CCC2` [Example 48, (S)-5-(2-((3-amino-1,1,1-trifluoro-2-methyl-3-oxopropan-2-yl)amino)-2-oxoacetyl)-N-(3,4-difluorophenyl)-6-methyl-2,3-dihydro-1H-pyrrolizine-7-carboxamide], the EC50 in data set [1] (setting [3]) was 0.0639 µM.
For `Cc1c(C(=O)Nc2ccc(F)cc2)c2n(c1C(=O)C(=O)NC1(c3cnnn3C)CC(F)(F)C1)CCC2` [Example 7, 5-(2-((3,3-difluoro-1-(1-methyl-1H-1,2,3-triazol-5-yl)cyclobutyl)amino)-2-oxoacetyl)-N-(4-fluorophenyl)-6-methyl-2,3-dihydro-1H-pyrrolizine-7-carboxamide], the EC50 in data set [1] (setting [3]) amounted to 0.0179 µM.
As for `Cc1c(C(=O)Nc2ccc(F)c(F)c2)c2n(c1C(=O)C(=O)NC1(c3cn(C[Si](C)(C)C)nn3)CC1)CCC2` [Example 12], in data set [1] (Hepatitis B virus, HepG2, 120 h), the response was half-maximal at 0.0936 µM (EC50).
For the compound `O=C(NC1(c2c[nH]nn2)CC1)C(=O)c1c(Cl)c(C(=O)Nc2ccc(F)c(C(F)F)c2)c2n1CCC2` [Example 56], the EC50 in data set [1] (setting [3]) is 0.0302 µM.

The values above are taken from patent US10836769B2, “Substituted pyrrolizine compounds and uses thereof” (Gilead Sciences, Inc., priority 2018, dated 2020).
